In patent US9718861B2 (Universitaet Leipzig, priority 2011, dated 2017):
Like-named read-outs stand apart in the source and are kept apart here. Blank lines part the entries; values can stand above or below the molecule they belong to. Where a SMILES comes first, the peptide text is derived from it. Where no end group is shown, it is not given here. [ ]: non-standard residue; d: D form. d1Nal = N[C@H](Cc1cccc2ccccc12)C(=O)O; Cha = N[C@@H](CC1CCCCC1)C(=O)O; Phg = N[C@H](C(=O)O)c1ccccc1; Nva = CCC[C@H](N)C(=O)O

How the values were obtained:
ghrelin receptor [1] = target: T1, ghrelin receptor (Homo sapiens, UniProt Q92847); experiment: Inositol trisphosphate turnover assay in COS-7 cells transfected with the ghrelin receptor; assay type: cell-based; design: expressed in transfected cells; conditions: for Emax: COS-7; for Emax ± SEM: efficacy; for EC50: mean ± SEM of n experiments
Target sequence in this assay (Q92847 whole entry): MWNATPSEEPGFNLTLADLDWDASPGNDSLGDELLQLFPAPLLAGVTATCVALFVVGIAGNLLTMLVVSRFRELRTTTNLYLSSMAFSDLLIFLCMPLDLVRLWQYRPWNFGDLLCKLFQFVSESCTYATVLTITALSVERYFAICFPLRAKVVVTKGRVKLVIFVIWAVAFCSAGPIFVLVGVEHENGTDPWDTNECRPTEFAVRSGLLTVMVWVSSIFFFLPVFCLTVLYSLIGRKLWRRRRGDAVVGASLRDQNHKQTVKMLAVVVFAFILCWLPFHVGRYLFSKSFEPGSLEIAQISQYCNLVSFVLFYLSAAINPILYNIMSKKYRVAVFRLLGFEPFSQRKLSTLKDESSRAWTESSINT
Description: COS-7 cells were grown in a humidified atmosphere at 37° C. and 5% CO2 in Dulbecco's modified Eagle's medium with higher glucose supplemented with 10% (v/v) FCS and 1% (v/v) penicillin/streptomycin. COS-7 cells were seeded out in 24-well plates (80.000-100.000 cells/well) in DMEM with 10% FCS. […] Each well was treated with 0.3 μg DNA and 0.9 μl metafectene.
The day after transfection, or the day after seeding for stable cells, cells were incubated with myo-[2-^3H]-inositol (2 μCi/ml) for 18 h and washed with DMEM/LiCl. Stimulation was then carried out with seven to nine different peptide concentrations in DMEM containing 10 mM LiCl, for 2 h, in duplicates. Stimulation was stopped by aspirating the medium and subsequently, cells were lysed with 150 μl of 0.1M NaOH for 5 min at RT. 50 μl of 0.2M HCOOH were added and the solution was diluted using 1 ml dilution buffer. […] Obtained data was analyzed with GraphPad Prism 3.0 (GraphPad Software). Therefore, dpm values are assigned to the corresponding peptide concentrations. Non-linear regression was used to obtain sigmoidal curves. For better comparability, dpm values were normalized to the constitutive activity. Constitutive activity of 100% represents the basal activity, the activity of the receptor without the influence of peptides. Emax is the efficacy of the peptide and represents the difference between constitutive activity and activity at maximal effect of the peptide. EC50 is the peptide concentration at half-maximal effect.

rats = experiment: ICV administration to rats, food intake; assay type: in vivo; conditions: 1 nmol/rat, n=6, vs vehicle 0.9% saline with DMSO
Description: For in vivo studies, peptide 3 was delivered intracerebroventricularly. The rats were stereotaxically implanted with a stainless steel cannula (Holm Finmekanik AS, Copenhagen, Denmark) aimed at the right lateral ventricle 1 mm caudal and 1.5 mm lateral to bregma and 4 mm ventral to cranium externa. Rats were left to recover in the metabolic cages (MANI Feed Win, Ellegaard Systems) for adaptation for at least 5 days, only interrupted by daily handling and body weight measurements. With these cages we could accurately measure the food and water intake of rats for up to 48 hours. The powdered diet used eliminated food hoarding and spill. Cannula placement was confirmed by measuring the drinking response to angiotensin injection (100 nmol/rat). Administration of peptide was done with 1 nmol/rat (n=6). As a negative control, a vehicle solution of 0.9% saline with DMSO (n=7) was used.

ghrelin receptor [2] = target: T1, ghrelin receptor; conditions: background, cited from earlier work
Target sequence in this assay (Q92847 whole entry, species assumed): as the sequence (Q92847 whole entry) above

ghrelin receptor [3] = target: T1, ghrelin receptor; conditions: background; cited from earlier work
Target sequence in this assay (Q92847 whole entry, species assumed): as the sequence (Q92847 whole entry) above

[4] = inverse agonistic activity, read-out: efficacy (Emax)
[5] = inverse agonistic activity, difference to constitutive activity (Table 2)
[6] = shift in efficacy compared to KwFwLL-NH2, inverse agonistic activity
[7] = shift in potency compared to KwFwLL-NH2, inverse agonistic activity
[8] = agonistic activity, read-out: Emax
[9] = agonistic activity, ghrelin and analogs KwFxLL-NH2 (Table 3)
[10] = agonistic activity, difference to constitutive activity (Table 3)
[11] = shift in efficacy compared to ghrelin, agonistic activity
[12] = shift in potency compared to ghrelin, agonistic activity
[13] = inverse agonistic activity, analogs K-(D-1-Nal)-xwLL-NH2 (Table 5)
[14] = shift of efficacy compared to K-(D-1-Nal)-FwLL-NH2, inverse agonistic activity
[15] = shift of potency compared to K-(D-1-Nal)-FwLL-NH2, inverse agonistic activity
[16] = inverse agonistic activity, analogs KxFwLL-NH2 (Table 2)

- activity at the ghrelin receptor (in words) (ghrelin receptor [1]): moderate activity
- Emax (ghrelin receptor [1]; [4]): > 80%
- Emax ± SEM (ghrelin receptor [1]; [5]): 82 ± 0 Δ %
- x-fold (Emax) (ghrelin receptor [1]; [6]): 2.2 x-fold
- x-fold (EC50) (ghrelin receptor [1]; [7]): 4.03 x-fold
Molecule: CC(C)C[C@H](NC(=O)[C@H](CC(C)C)NC(=O)[C@@H](Cc1c[nH]c2ccccc12)NC(=O)[C@H](Cc1ccccc1)NC(=O)[C@@H](Cc1ccc(-c2ccccc2)cc1)NC(=O)[C@@H](N)CCCCN)C(N)=O [Peptide 8, K-(D-Bip)-FwLL-NH2]

Molecule: CC(C)C[C@H](NC(=O)[C@H](CC(C)C)NC(=O)[C@@H](Cc1c[nH]c2ccccc12)NC(=O)[C@H](Cc1ccccc1)NC(=O)[C@@H](Cc1ccc(C(=O)c2ccccc2)cc1)NC(=O)[C@@H](N)CCCCN)C(N)=O [Peptide 7, K-(D-Bpa)-FwLL-NH2]
- activity at the ghrelin receptor (in words) (ghrelin receptor [1]): moderate activity
- Emax ± SEM (ghrelin receptor [1]; [5]): 67 ± 7 Δ %
- x-fold (Emax) (ghrelin receptor [1]; [6]): 1.8 x-fold
- x-fold (EC50) (ghrelin receptor [1]; [7]): 3.70 x-fold

- Emax (ghrelin receptor [1]; [4]): > 80%
- Emax ± SEM (ghrelin receptor [1]; [5]): 87 ± 2 Δ %
- increase in activity compared with peptide 2 (KwFwLL-NH2) (ghrelin receptor [1]; inverse agonistic activity): 3.5 fold
- x-fold (Emax) (ghrelin receptor [1]; [6]): 2.4 x-fold
- x-fold (EC50) (ghrelin receptor [1]; [7]): 0.29 x-fold
Molecule: CC(C)C[C@H](NC(=O)[C@H](CC(C)C)NC(=O)[C@@H](Cc1c[nH]c2ccccc12)NC(=O)[C@H](Cc1ccccc1)NC(=O)[C@H](NC(=O)[C@@H](N)CCCCN)C(c1ccccc1)c1ccccc1)C(N)=O [Peptide 5, K-(D-Dip)-FwLL-NH2]

- Emax (ghrelin receptor [1]; [4]): 40%
- Emax ± SEM (ghrelin receptor [1]; inverse agonistic activity, analogs KxFxLL-NH2 (Table 4)): 40 ± 2 Δ %
Molecule: CC(C)C[C@H](NC(=O)[C@H](CC(C)C)NC(=O)[C@@H](Cc1csc2ccccc12)NC(=O)[C@H](Cc1ccccc1)NC(=O)[C@@H](Cc1cccc2ccccc12)NC(=O)[C@@H](N)CCCCN)C(N)=O [Peptide 19, K-(D-1-Nal)-F-(D-Bth)-LL-NH2]

- Emax (ghrelin receptor [1]; [8]): 156%
- EC50 (ghrelin receptor [1]; [9]): 12.6 nM
- percent of ghrelin efficacy (ghrelin receptor [1]; agonistic activity, relative to ghrelin): 96%
- Emax ± SEM (ghrelin receptor [1]; [10]): 156 ± 22 Δ %
- x-fold (Emax) (ghrelin receptor [1]; [11]): 1 x-fold
- x-fold (EC50) (ghrelin receptor [1]; [12]): 9.00 x-fold
Molecule: CC(C)C[C@H](NC(=O)[C@H](CC(C)C)NC(=O)[C@@H](Cc1ccc2ccccc2c1)NC(=O)[C@H](Cc1ccccc1)NC(=O)[C@@H](Cc1c[nH]c2ccccc12)NC(=O)[C@@H](N)CCCCN)C(N)=O [Peptide 13, KwF-(D-2-Nal)-LL-NH2]

- activity at the ghrelin receptor (in words) (ghrelin receptor [1]): no activity
Molecule: CC(C)C[C@H](NC(=O)[C@H](CC(C)C)NC(=O)[C@@H](Cc1ccc(C(=O)c2ccccc2)cc1)NC(=O)[C@H](Cc1ccccc1)NC(=O)[C@@H](Cc1c[nH]c2ccccc12)NC(=O)[C@@H](N)CCCCN)C(N)=O [Peptide 15, KwF-(D-Bpa)-LL-NH2]

- activity at the ghrelin receptor (in words) (ghrelin receptor [1]): no activity
Molecule: CC(C)C[C@H](NC(=O)[C@H](CC(C)C)NC(=O)[C@H](NC(=O)[C@H](Cc1ccccc1)NC(=O)[C@@H](Cc1c[nH]c2ccccc12)NC(=O)[C@@H](N)CCCCN)C(c1ccccc1)c1ccccc1)C(N)=O [Peptide 16, KwF-(D-Dip)-LL-NH2]

Molecule: CC(C)C[C@H](NC(=O)[C@H](CC(C)C)NC(=O)[C@@H](Cc1c[nH]c2ccccc12)NC(=O)[C@H](Cc1ccccc1)NC(=O)[C@@H](Cc1cccc2ccccc12)NC(=O)[C@@H](N)CCCCN)C(N)=O [Peptide 3, K-(D-1-Nal)-FwLL-NH2]
- decrease of food intake compared to vehicle (rats): ~5 fold

- Emax ± SEM (ghrelin receptor [1]; [13]): 71 ± 4 Δ %
- x-fold (Emax) (ghrelin receptor [1]; [14]): 1.1 x-fold
- x-fold (EC50) (ghrelin receptor [1]; [15]): 146.5 x-fold
Molecule: CCC[C@H](NC(=O)[C@@H](Cc1cccc2ccccc12)NC(=O)[C@@H](N)CCCCN)C(=O)N[C@H](Cc1c[nH]c2ccccc12)C(=O)N[C@@H](CC(C)C)C(=O)N[C@@H](CC(C)C)C(N)=O [Peptide 24, K-(D-1-Nal)-(L-Nva)-wLL-NH2] (H-K[d1Nal][Nva][dW]LL-NH2)

- activity at the ghrelin receptor (in words) (ghrelin receptor [1]): moderate activity
- Emax ± SEM (ghrelin receptor [1]; [5]): 62 ± 4 Δ %
- EC50 (ghrelin receptor [1]; [16]): 241 nM
- x-fold (Emax) (ghrelin receptor [1]; [6]): 1.7 x-fold
- x-fold (EC50) (ghrelin receptor [1]; [7]): 5.28 x-fold
Molecule: CC(C)C[C@H](NC(=O)[C@H](CC(C)C)NC(=O)[C@@H](Cc1c[nH]c2ccccc12)NC(=O)[C@H](Cc1ccccc1)NC(=O)[C@@H](Cc1ccccc1)NC(=O)[C@@H](N)CCCCN)C(N)=O [Peptide 9, K-(D-Phe)-FwLL-NH2]

- activity at the ghrelin receptor (in words) (ghrelin receptor [1]): totally suppressed activity
Molecule: CC(C)C[C@H](NC(=O)[C@H](CC(C)C)NC(=O)[C@@H](Cc1cccc2ccccc12)NC(=O)[C@H](Cc1ccccc1)NC(=O)[C@@H](Cc1cccc2ccccc12)NC(=O)[C@@H](N)CCCCN)C(N)=O [Peptide 18, K-(D-1-Nal)-F-(D-1-Nal)-LL-NH2]

- Emax ± SEM (ghrelin receptor [1]; [13]): 85 ± 3 Δ %
- x-fold (Emax) (ghrelin receptor [1]; [14]): 1.3 x-fold
- x-fold (EC50) (ghrelin receptor [1]; [15]): 28.5 x-fold
Molecule: CC(C)C[C@H](NC(=O)[C@H](CC(C)C)NC(=O)[C@@H](Cc1c[nH]c2ccccc12)NC(=O)[C@H](CC1CCCCC1)NC(=O)[C@@H](Cc1cccc2ccccc12)NC(=O)[C@@H](N)CCCCN)C(N)=O [Peptide 21, K-(D-1-Nal)-(Cha)-wLL-NH2] (H-K[d1Nal][Cha][dW]LL-NH2)

- x-fold (EC50) (ghrelin receptor [1]; [15]): >290 x-fold
Molecule: CC(C)C[C@H](NC(=O)[C@H](CC(C)C)NC(=O)[C@@H](Cc1c[nH]c2ccccc12)NC(=O)[C@@H](NC(=O)[C@@H](Cc1cccc2ccccc12)NC(=O)[C@@H](N)CCCCN)c1ccccc1)C(N)=O [Peptide 25, K-(D-1-Nal)-(L-Phg)-wLL-NH2] (H-K[d1Nal][Phg][dW]LL-NH2; N-terminus assumed)

- Emax (ghrelin receptor [1]; [8]): 54%
- EC50 (ghrelin receptor [1]; [9]): 17.9 nM
- Emax ± SEM (ghrelin receptor [1]; [10]): 54 ± 10 Δ %
- x-fold (Emax) (ghrelin receptor [1]; [11]): 0.3 x-fold
- x-fold (EC50) (ghrelin receptor [1]; [12]): 12.8 x-fold
Molecule: CC(C)C[C@H](NC(=O)[C@H](CC(C)C)NC(=O)[C@@H](Cc1cccc2ccccc12)NC(=O)[C@H](Cc1ccccc1)NC(=O)[C@@H](Cc1c[nH]c2ccccc12)NC(=O)[C@@H](N)CCCCN)C(N)=O [Peptide 12, KwF-(D-1-Nal)-LL-NH2]

- Emax (ghrelin receptor [1]; [4]): 84%
- Emax ± SEM (ghrelin receptor [1]; [13]): 84 ± 3 Δ %
- x-fold (Emax) (ghrelin receptor [1]; [14]): 1.3 x-fold
- x-fold (EC50) (ghrelin receptor [1]; [15]): 36.5 x-fold
Molecule: CC(C)C[C@H](NC(=O)[C@H](CC(C)C)NC(=O)[C@@H](Cc1c[nH]c2ccccc12)NC(=O)[C@H](Cc1ccc(C(C)(C)C)cc1)NC(=O)[C@@H](Cc1cccc2ccccc12)NC(=O)[C@@H](N)CCCCN)C(N)=O [Peptide 22, K-(D-1-Nal)-(L-tBf)-wLL-NH2]

Molecule: fQwFwLL-NH2
- decrease of affinity in comparison to full-length modified substance P (ghrelin receptor [2]): 5.3 fold
- decrease of activity in comparison to full-length modified substance P (ghrelin receptor [3]): 1.6 fold

- activity at the ghrelin receptor (in words) (ghrelin receptor [1]): no activity
Molecule: CC(C)C[C@H](NC(=O)[C@H](CC(C)C)NC(=O)[C@@H](Cc1ccc(-c2ccccc2)cc1)NC(=O)[C@H](Cc1ccccc1)NC(=O)[C@@H](Cc1c[nH]c2ccccc12)NC(=O)[C@@H](N)CCCCN)C(N)=O [Peptide 14, KwF-(D-Bip)-LL-NH2]

Molecule: wFwLL-NH2 ([dW]F[dW]LL-NH2; N-terminus assumed; SMILES CC(C)C[C@H](NC(=O)[C@H](CC(C)C)NC(=O)[C@@H](Cc1c[nH]c2ccccc12)NC(=O)[C@H](Cc1ccccc1)NC(=O)[C@H](N)Cc1c[nH]c2ccccc12)C(N)=O)
- IC50 (ghrelin receptor [2]; reference 17, read-out: IC50 (receptor binding)): 530 ± 230 nM

Molecule: CC(C)C[C@H](NC(=O)[C@H](CC(C)C)NC(=O)[C@@H](Cc1c[nH]c2ccccc12)NC(=O)[C@H](Cc1ccccc1)NC(=O)[C@@H](Cc1c[nH]c2ccccc12)NC(=O)[C@@H](N)CCCCN)C(N)=O [Peptide 2, KwFwLL-NH2, reference compound]
- Emax (ghrelin receptor [1]; [4]): 37%
- Emax ± SEM (ghrelin receptor [1]; [5]): 37 ± 5 Δ %
- EC50 (ghrelin receptor [1]; [16]): 45.6 nM
- x-fold (Emax) (ghrelin receptor [1]; [6]): 1 x-fold
- x-fold (EC50) (ghrelin receptor [1]; [7]): 1 x-fold

- activity at the ghrelin receptor (in words) (ghrelin receptor [1]): moderate activity
- Emax ± SEM (ghrelin receptor [1]; [5]): 66 ± 4 Δ %
- EC50 (ghrelin receptor [1]; [16]): 161 nM
- x-fold (Emax) (ghrelin receptor [1]; [6]): 1.8 x-fold
- x-fold (EC50) (ghrelin receptor [1]; [7]): 3.54 x-fold
Molecule: CC(C)C[C@H](NC(=O)[C@H](CC(C)C)NC(=O)[C@@H](Cc1c[nH]c2ccccc12)NC(=O)[C@H](Cc1ccccc1)NC(=O)[C@@H](Cc1ccc2ccccc2c1)NC(=O)[C@@H](N)CCCCN)C(N)=O [Peptide 6, K-(D-2-Nal)-FwLL-NH2]
